Data: patent US10598672B2, “Methods and compositions for diagnosing and treating loss and/or distortion of taste or smell” (Cyrano Therapeutics, Inc., priority 2014, dated 2020)
Marks after values point to notes of the source that are not given here.

Test system: patients with hyposmia
Assay: Olfactometry: DT, RT, ME and H for pyridine, nitrobenzene, thiophene, amyl acetate
Assay type: in vivo, human
Details: for AMYL ACETATE DT, detection threshold / AMYL ACETATE H, hedonic value / AMYL ACETATE ME, magnitude estimation / AMYL ACETATE RT, recognition threshold / NI[…], detection threshold / NI[…], hedonic value / NI[…], magnitude estimation / NI[…], recognition threshold / PYRIDINE DT, detection threshold / PYRIDINE H, hedonic value / PYRIDINE ME, magnitude estimation / PYRIDINE RT, recognition threshold / THIOPHENE DT, detection threshold / THIOPHENE H, hedonic value / THIOPHENE ME, magnitude estimation / THIOPHENE RT, recognition threshold: hyposmic, oral theophylline, Mean ± SEM
[1] = ALL PATIENTS (31) treated with oral theophylline
[2] = ALLERGIC RHINITIS (11) treated with oral theophylline
[3] = CONGENITAL (9) treated with oral theophylline
[4] = PIHH (10) treated with oral theophylline
[5] = POST GENERAL ANESTHESIA (1) treated with oral theophylline
[6] = after intranasal treatment vs before treatment or after oral treatment
[7] = after oral treatment vs before treatment, 10 patients
[8] = hyposmic patients TREATED (31) with oral theophylline
[9] = oral theophylline dose 200 mg (6 patients)

Cn1c(=O)c2[nH]cnc2n(C)c1=O [theophylline]
SMELL IMPROVEMENT Patient (%) [1]: 61% | SMELL IMPROVEMENT Patient Number [1]: 19 | SMELL IMPROVEMENT Patient (%) [2]: 45% | SMELL IMPROVEMENT Patient Number [2]: 5 | SMELL IMPROVEMENT Patient (%) [3]: 56% | SMELL IMPROVEMENT Patient Number [3]: 5 | SMELL IMPROVEMENT Patient (%) [4]: 80% | SMELL IMPROVEMENT Patient Number [4]: 8 | SMELL IMPROVEMENT Patient (%) [5]: 100% | SMELL IMPROVEMENT Patient Number [5]: 1 | AMYL ACETATE DT, detection threshold (TREATED MEN (19)): 4.7 ± 0.9^b BU | AMYL ACETATE H, hedonic value (TREATED MEN (19)): 3 ± 3% | AMYL ACETATE ME, magnitude estimation (TREATED MEN (19)): 17 ± 5% | AMYL ACETATE RT, recognition threshold (TREATED MEN (19)): 5.3 ± 0.9^a BU | NI[…], detection threshold (TREATED MEN (19)): 4.8 ± 1.1^b BU | NI[…], hedonic value (TREATED MEN (19)): 6 ± 5% | NI[…], magnitude estimation (TREATED MEN (19)): 19 ± 5% | NI[…], recognition threshold (TREATED MEN (19)): 5.2 ± 1.2^b BU | PYRIDINE DT, detection threshold (TREATED MEN (19)): 4.8 ± 0.9^a BU | PYRIDINE H, hedonic value (TREATED MEN (19)): −30 ± 7% | PYRIDINE ME, magnitude estimation (TREATED MEN (19)): 36 ± 7% | PYRIDINE RT, recognition threshold (TREATED MEN (19)): 5.6 ± 1.0^c BU | THIOPHENE DT, detection threshold (TREATED MEN (19)): 5.6 ± 0.9^b BU | THIOPHENE H, hedonic value (TREATED MEN (19)): −7 ± 3% | THIOPHENE ME, magnitude estimation (TREATED MEN (19)): 15 ± 5% | THIOPHENE RT, recognition threshold (TREATED MEN (19)): 7.6 ± 1.0 BU | AMYL ACETATE DT, detection threshold (TREATED WOMEN (12)): 7.4 ± 1.1 BU | AMYL ACETATE H, hedonic value (TREATED WOMEN (12)): 2 ± 6% | AMYL ACETATE ME, magnitude estimation (TREATED WOMEN (12)): 22 ± 7% | AMYL ACETATE RT, recognition threshold (TREATED WOMEN (12)): 8.7 ± 1.0 BU | NI[…], detection threshold (TREATED WOMEN (12)): 6.8 ± 1.4 BU | NI[…], hedonic value (TREATED WOMEN (12)): 8 ± 7% | NI[…], magnitude estimation (TREATED WOMEN (12)): 25 ± 8% | NI[…], recognition threshold (TREATED WOMEN (12)): 7.3 ± 1.1 BU | PYRIDINE DT, detection threshold (TREATED WOMEN (12)): 7.1 ± 0.9 BU | PYRIDINE H, hedonic value (TREATED WOMEN (12)): −38 ± 8% | PYRIDINE ME, magnitude estimation (TREATED WOMEN (12)): 42 ± 9% | PYRIDINE RT, recognition threshold (TREATED WOMEN (12)): 8.0 ± 1.0 BU | THIOPHENE DT, detection threshold (TREATED WOMEN (12)): 7.1 ± 1.2 BU | THIOPHENE H, hedonic value (TREATED WOMEN (12)): −19 ± 6% | THIOPHENE ME, magnitude estimation (TREATED WOMEN (12)): 30 ± 7% | THIOPHENE RT, recognition threshold (TREATED WOMEN (12)): 8.1 ± 1.3 BU | DTs and RTs for each odor [6]: lower (more sensitive) | Hedonic responses to nitrobenzene [6]: more positive (more pleasant) | Hedonic responses to thiophene [6]: more negative (more unpleasant) | Magnitude estimations for each odor [6]: higher (more intense) | DTs and RTs for all odorants [7]: decreased (more sensitive) | HRs for all odorants [7]: increased | MEs for all odorants [7]: increased (more sensitive) | AMYL ACETATE DT [8]: 1.2 ± 0.6^d,a2 BU | AMYL ACETATE H [8]: 3 ± 4% | AMYL ACETATE ME [8]: 17 ± 5^a2% | AMYL ACETATE RT [8]: 5.5 ± 0.8^d BU | PYRIDINE DT [8]: 5.7 ± 0.7^c,b2 BU | PYRIDINE H [8]: −32 ± 6% | PYRIDINE ME [8]: 40 ± 6% | PYRIDINE RT [8]: 6.7 ± 0.8^d BU | THEOPHENE DT [8]: 5.1 ± 0.7^e,a2 BU | THEOPHENE H [8]: −9 ± 4^a2% | THEOPHENE ME [8]: 18 ± 4^a2% | THEOPHENE RT [8]: 5.5 ± 0.8^e,e2 BU | patients who exhibited improved smell function (hyposmic patients after oral treatment (text of Example 9)): 60% | AMYL ACETATE DT [9]: 8.2 ± 2.1 BU | AMYL ACETATE H [9]: 8 ± 8% | AMYL ACETATE ME [9]: 12 ± 11% | AMYL ACETATE RT [9]: 8.6 ± 1.9 BU
